Reference: ChEMBL document CHEMBL1140432, “Synthesis and biological evaluation of a novel series of "ortho-nitrated" inhibitors of catechol-O-methyltransferase” (J Med Chem, 2005)

Tests used:
[1] = biological target: T1, Catechol O-methyltransferase (Rattus norvegicus, UniProt P22734); test: Inhibitory activity against COMT in rat brain; type: tissue-based
T1 sequence (P22734 whole entry): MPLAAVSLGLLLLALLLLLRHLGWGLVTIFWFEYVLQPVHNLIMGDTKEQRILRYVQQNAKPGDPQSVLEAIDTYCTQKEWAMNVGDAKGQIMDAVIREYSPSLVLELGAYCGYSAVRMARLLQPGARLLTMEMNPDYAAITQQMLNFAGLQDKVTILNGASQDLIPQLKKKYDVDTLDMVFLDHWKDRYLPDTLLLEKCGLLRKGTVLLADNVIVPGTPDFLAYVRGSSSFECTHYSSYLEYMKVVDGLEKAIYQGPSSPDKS

[2] = biological target: T1, Catechol O-methyltransferase; test: Inhibitory activity against COMT in rat liver

SMILES	IC50 [1]	IC50 [2]
O=C(Cc1ccccc1)c1ccc(O)c(O)c1[N+](=O)[O-]	0.003 µM	0.13 µM
O=C(CCc1ccccc1)c1ccc(O)c(O)c1[N+](=O)[O-]	0.004 µM	2 µM
O=C(CCCc1ccccc1)c1ccc(O)c(O)c1[N+](=O)[O-]	0.004 µM	0.13 µM
O=C(CCCCc1ccccc1)c1ccc(O)c(O)c1[N+](=O)[O-]	0.004 µM	0.11 µM
